Laboratory results published in ChEMBL document CHEMBL4152269, “New N-phenylpyrrolamide DNA gyrase B inhibitors: Optimization of efficacy and antibacterial activity” (Eur J Med Chem, 2018).
Converted amounts (≈) assume the structure as drawn.

Columns and labels:
Pseudomonas aeruginosa = assay: Growth inhibition of Pseudomonas aeruginosa ATCC 27853 at 50 uM after 24 hrs by broth microdilution method relative to control; format: functional; details: ATCC 27853, 24 h, read-out: GI
Escherichia coli [1] = assay: Growth inhibition of Escherichia coli ATCC 25922 at 50 uM after 24 hrs by broth microdilution method relative to control; format: functional; details: ATCC 25922, 24 h, read-out: GI
DNA gyrase subunit B [2] = biological target: DNA gyrase subunit B (Escherichia coli, UniProt P0AES6); assay: Inhibition of Escherichia coli DNA gyrase by supercoiling assay
[3] = Inhibition of Escherichia coli C-terminal His6-tagged topoisomerase-4 expressed in Escherichia coli BL21(DE3) preincubated for 10 mins followed by ATP addition measured after 30 mins by purine nucleoside phosphorylase enzyme coupled spectrophotometric method
Escherichia coli [4] = assay: Growth inhibition of lpxC deficient Escherichia coli JD17464 at 50 uM after 24 hrs by broth microdilution method relative to control; format: functional; details: JD17464, 24 h, read-out: GI
Staphylococcus aureus [5] = assay: Growth inhibition of Staphylococcus aureus ATCC 25923 at 50 uM after 24 hrs by broth microdilution method relative to control; format: functional; details: ATCC 25923, 24 h, read-out: GI
Enterococcus faecalis [6] = assay: Growth inhibition of Enterococcus faecalis ATCC 29212 at 50 uM after 24 hrs by broth microdilution method relative to control; format: functional; details: ATCC 29212, 24 h, read-out: GI
DNA gyrase subunit B [7] = biological target: DNA gyrase subunit B (Staphylococcus aureus, UniProt P0A0K8); assay: Inhibition of Staphylococcus aureus DNA gyrase B preincubated for 10 mins followed by ATP addition measured after 30 mins by purine nucleoside phosphorylase enzyme coupled spectrophotometric method
Chain of DNA gyrase subunit B (Staphylococcus aureus, UniProt P0A0K8) (P0A0K8 whole entry): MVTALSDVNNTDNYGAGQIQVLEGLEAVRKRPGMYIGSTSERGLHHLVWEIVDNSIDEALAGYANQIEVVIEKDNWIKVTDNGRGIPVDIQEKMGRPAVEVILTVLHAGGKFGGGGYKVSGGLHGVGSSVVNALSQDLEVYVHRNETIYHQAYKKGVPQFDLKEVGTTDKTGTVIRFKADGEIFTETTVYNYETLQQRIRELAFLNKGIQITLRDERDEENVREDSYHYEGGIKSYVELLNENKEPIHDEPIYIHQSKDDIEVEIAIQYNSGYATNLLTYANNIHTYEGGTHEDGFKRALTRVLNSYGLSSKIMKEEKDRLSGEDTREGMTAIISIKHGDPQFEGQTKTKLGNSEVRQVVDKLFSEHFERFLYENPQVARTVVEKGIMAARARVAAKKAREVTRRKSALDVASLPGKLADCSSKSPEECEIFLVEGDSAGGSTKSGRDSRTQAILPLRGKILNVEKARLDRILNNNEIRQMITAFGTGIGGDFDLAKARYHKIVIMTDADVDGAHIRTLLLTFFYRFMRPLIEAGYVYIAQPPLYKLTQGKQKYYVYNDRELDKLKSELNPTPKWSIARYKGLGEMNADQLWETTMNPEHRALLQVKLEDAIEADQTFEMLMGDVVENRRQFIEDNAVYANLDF

Escherichia coli [8] = assay: Growth inhibition of tolC deficient Escherichia coli JW5503 at 50 uM after 24 hrs by broth microdilution method relative to control; format: functional; details: JW5503, 24 h, read-out: GI
[9] = Inhibition of Staphylococcus aureus topoisomerase-4 assessed as residual activity preincubated for 10 mins followed by ATP addition measured after 30 mins by purine nucleoside phosphorylase enzyme coupled spectrophotometric method
Enterococcus faecalis [10] = assay: Antibacterial activity against Enterococcus faecalis ATCC 29212 after 18 hrs by broth microdilution method; format: functional; details: ATCC 29212, 18 h
Escherichia coli [11] = assay: Antibacterial activity against tolC deficient Escherichia coli JW5503 after 18 hrs by broth microdilution method; format: functional; details: JW5503, 18 h
Staphylococcus aureus [12] = assay: Inhibition of Staphylococcus aureus topoisomerase-4 assessed as residual activity at 1 uM preincubated for 10 mins followed by ATP addition measured after 30 mins by purine nucleoside phosphorylase enzyme coupled spectrophotometric method relative to control

Row | SMILES | inhibition of growth at 50 µM (Pseudomonas aeruginosa) | inhibition of growth at 50 µM (Escherichia coli [1]) | IC50 (DNA gyrase subunit B [2]) | IC50 [3] | inhibition of growth at 50 µM (Escherichia coli [4]) | inhibition of growth at 50 µM (Staphylococcus aureus [5]) | inhibition of growth at 50 µM (Enterococcus faecalis [6]) | IC50 (DNA gyrase subunit B [7]) | inhibition of growth at 50 µM (Escherichia coli [8]) | IC50 [9] | MIC90 (Enterococcus faecalis [10]) | MIC90 (Escherichia coli [11]) | Activity (Staphylococcus aureus [12])
1 | Cc1[nH]c(C(=O)Nc2ccc(C(=O)N[C@@H](C)C(=O)O)cc2OCCN)c(Cl)c1Cl | 10% | 4% | 28 nM | 530 nM | 5% | 17% | 36% | 110 nM | -4% | 3200 nM | – | – | –
2 | COC(=O)[C@@H](C)NC(=O)c1ccc(NC(=O)c2[nH]c(C)c(Cl)c2Cl)c(OC(C)C)c1 | 5% | 12% | – | – | 27% | 29% | -41% | – | 11% | – | – | – | –
3 | Cc1[nH]c(C(=O)Nc2ccc(C(=O)N[C@H](C)C(=O)O)cc2OC(C)C)c(Cl)c1Cl | -1% | 4% | 41 nM | 7400 nM | 5% | 59% | 101% | 1600 nM | 52% | 1300 nM | 6.25 µM (≈ 2.76 µg/mL) | – | –
4 | Cc1[nH]c(C(=O)Nc2ccc(C(=O)N[C@@H](C)C(=O)O)cc2OC(C)C)c(Cl)c1Cl | 8% | 0% | 38 nM | 450 nM | -10% | -21% | 100% | 93 nM | 97% | 280 nM | 3.13 µM (≈ 1.38 µg/mL) | 50 µM (≈ 22.1 µg/mL) | –
5 | Cc1[nH]c(C(=O)Nc2ccc(C(=O)N[C@@H](C)C(=O)O)cc2OCCNC(=O)OC(C)(C)C)c(Cl)c1Cl | 5% | 5% | 590 nM | – | 14% | -11% | -1% | 1300 nM | 11% | – | – | – | 99%
6 | CC(C)(C)OC(=O)NCCOc1cc(C(=O)NCC(=O)O)ccc1NC(=O)c1cc(Br)c(Br)[nH]1 | 9% | 2% | – | – | -2% | 7% | 1% | – | 5% | – | – | – | –
7 | CC(C)Oc1cc(C(=O)N[C@H](C(=O)O)C(C)C)ccc1NC(=O)c1cc(Br)c(Br)[nH]1 | 11% | -2% | – | – | -1% | -13% | 80% | – | 18% | – | > 75 µM | – | –
8 | Cc1[nH]c(C(=O)Nc2ccc(C(=O)N[C@@H](C)c3n[nH]c(=O)o3)cc2OCCN)c(Cl)c1Cl | 16% | 1% | 13 nM | 570 nM | 13% | 0% | -6% | 1000 nM | 88% | 960 nM | – | 50 µM (≈ 24.2 µg/mL) | –
9 | COC(=O)CNC(=O)c1ccc(NC(=O)c2[nH]c(C)c(Cl)c2Cl)cc1OC(C)C | -5% | 6% | – | – | – | -5% | 44% | – | – | – | – | – | –
10 | COC(=O)[C@H](C)NC(=O)c1ccc(NC(=O)c2cc(Br)c(Br)[nH]2)c(OC(C)C)c1 | 9% | 5% | – | – | 11% | 42% | 65% | – | 97% | – | – | 25 µM (≈ 13.3 µg/mL) | –
11 | NCCOc1cc(C(=O)NCC(=O)O)ccc1NC(=O)c1cc(Br)c(Br)[nH]1 | 11% | 0% | – | – | -5% | -2% | 0% | – | -8% | – | – | – | –
12 | Cc1[nH]c(C(=O)Nc2ccc(C(=O)N[C@@H](C)C(=O)NN)cc2OC(C)C)c(Cl)c1Cl | 9% | 7% | 280 nM | – | 3% | 5% | 99% | 22000 nM | 7% | – | 6.25 µM (≈ 2.85 µg/mL) | – | 92%
13 | COC(=O)[C@H](C)NC(=O)c1ccc(NC(=O)c2[nH]c(C)c(Cl)c2Cl)c(OC(C)C)c1 | 8% | 0% | – | – | 6% | -45% | 57% | – | -12% | – | – | – | –
14 | COC(=O)[C@@H](NC(=O)c1ccc(NC(=O)c2cc(Br)c(Br)[nH]2)c(OC(C)C)c1)C(C)C | 6% | 13% | – | – | 22% | 33% | 59% | – | -9% | – | – | – | –
15 | Cc1[nH]c(C(=O)Nc2ccc(C(=O)N[C@@H](C)c3n[nH]c(=O)o3)cc2OCCNC(=O)OC(C)(C)C)c(Cl)c1Cl | 31% | -1% | 1600 nM | – | 2% | 3% | 86% | – | -5% | – | 100 µM (≈ 58.3 µg/mL) | – | –
16 | Cc1[nH]c(C(=O)Nc2ccc(C(=O)N[C@@H](C)C(=O)NN)cc2OCCNC(=O)OC(C)(C)C)c(Cl)c1Cl | 12% | 5% | – | – | 19% | 7% | 64% | – | 13% | – | – | – | –
17 | COC(=O)[C@H](Cc1ccccc1)NC(=O)c1ccc(NC(=O)c2[nH]c(C)c(Cl)c2Cl)c(OC(C)C)c1 | 6% | 13% | – | – | 25% | -3% | 74% | – | -5% | – | – | – | –
18 | CN(C)CCOc1cc(NC(=O)c2cc(Br)c(Br)[nH]2)ccc1C(=O)NCC(=O)O | 4% | 7% | – | – | – | 28% | 14% | – | – | – | – | – | –
19 | COC(=O)[C@H](Cc1ccccc1)NC(=O)c1ccc(NC(=O)c2cc(Br)c(Br)[nH]2)c(OCCN)c1 | 28% | 9% | – | – | 23% | 103% | 102% | – | 103% | – | 50 µM (≈ 30.4 µg/mL) | 25 µM (≈ 15.2 µg/mL) | –
20 | Cc1[nH]c(C(=O)Nc2ccc(C(=O)N[C@@H](Cc3ccccc3)C(=O)O)cc2OC(C)C)c(Cl)c1Cl | 4% | -2% | – | – | 1% | -57% | 99% | – | 8% | – | 3.13 µM (≈ 1.62 µg/mL) | – | –
21 | Cc1[nH]c(C(=O)Nc2ccc(C(=O)NCC(=O)O)c(OC(C)C)c2)c(Cl)c1Cl | 11% | 12% | 91 nM | – | – | -9% | 75% | 140 nM | – | 12000 nM | – | – | –
